Results as given in patent US20020177592A1, “Combination of adrenergic agonist and tricyclo-alkylamine for relieving chronic pain without adverse side effects” (priority 1998, published 2002).
Like-named read-outs stand apart in the source and are kept apart here.

Key:
[1] = test system: NMDA receptors; details: concentration giving complete protection of neurons against 200 μM NMA, cell culture; cited from earlier work
[2] = biological target: NMDA receptors; details: concentration suppressing MK-801 binding by 50%, cited from earlier work
[3] = test system: rats with sciatic nerve ligation; experiment: Sciatic nerve ligation model of neuropathic pain, paw lifting latency to thermal stimulus; assay type: in vivo, rat
Excerpt: In all experiments, one hind limb of the rat has undergone a surgical operation in which a loop (“ligature”) of suture material was placed around the sciatic nerve and gently tightened. Over the course of several days, this caused chronic irritation to the nerve, driving it into a “hyper-sensitized” condition of the type which occurs in damaged neuronal circuits that cause neuropathic pain in humans.
After the nerve ligation operation, a waiting period of 8 days elapsed, to allow the ligated limb to reach a peak of hypersensitized chronic irritation of the ligated sciatic nerve. This sciatic nerve model was first described by Bennet and Xie 1988, and is widely regarded as a useful animal model for studying neuropathic pain.
To test the degree of sensitivity in the ligated limb vs. the unoperated limb, a beam of light (thermal stimulus) is applied to the soles (i.e., the undersurface area which is not covered by fur) of the hind paws, by shining a focused beam of light onto the sole, through the glass floor of a testing chamber. This beam was sufficiently hot to generate some discomfort, without posing any risk of burning the paw. The number of seconds that elapsed after commencement of the thermal stimulus, until the rat lifted up the paw, were detected electronically and recorded automatically.
Each limb is tested initially for thermal pain sensitivity, before the ligation operation is performed (pre-surgery), to ensure that both limbs had the same degree of pain sensitivity. After 8 days following surgery, each limb was tested again, before any treatment was given (pre-treatment), to ensure that the nerve ligature successfully provoked a hyper-irritable condition in the ligated limb. After drug treatment (at time=0, on the graphs), each limb was tested for thermal pain sensitivity at hourly intervals, for 4 hours.
The first set of in vivo tests involved sciatic nerve ligation in rats, using procedures described in Bennett and Xie, Pain 33: 87-107 (1988). This test involves surgically placing and tightening a loop of suture material around the sciatic nerve in one hind leg of a rat; the other hind leg serves as a control. Within about a week, the ligated sciatic nerve becomes irritated and reaches a hyper-responsive “kindled” state, where it will respond rapidly to even a mild stimulus that is not painful to an untampered leg. As such, it offers a model of what happens in pain pathways that have become pathologically hypersensitized in a human suffering from neuropathic pain.
In these tests, on the 8th day after surgery, the rat is placed in a testing device which electronically measures how quickly or slowly it acts, in lifting up a paw in response to a standardized mild warming (thermal) stimulus. The warming stimulus is generated by a light beam which shines onto the bottom surface of the paw, through the glass floor of the testing enclosure. The device is electronically controlled and automated, and measurements are made of the number of seconds that elapse after the light beam begins to shine on the bottom of the paw, until the rat lifts its paw.
To establish baseline values for pain sensitivity of each limb in each group of animals, each limb was tested initially for thermal pain sensitivity before the ligation operation was performed (pre-surgery). After 8 days, each limb was again tested before any drug treatment was administered (shown by the “pre-treatment” legend in all graphs). After drug administration, each limb was tested for thermal pain sensitivity at hourly intervals, for 4 hours.
Saline controls and all drugs were administered by intraperitoneal (IP) injection, i.e., hypodermic injection into the abdominal region. This is a convenient and reliable method of drug administration, for tests involving rats.
The test results are shown graphically in the Figures; each circle indicates the mean value, and the vertical bars show the standard error of the mean (SEM). […]

[4] = test system: rats; experiment: Sensorimotor battery (plank, walking initiation, platform, inclined screen, activity); assay type: in vivo, rat; details: treatment regimens that proved effective for relieving neuropathic pain; 1 hour post-treatment
Method: Testing was done at 1 hour post-treatment, which corresponded with the time of peak effect of drugs on paw withdrawal latency. Briefly, the sensorimotor battery consisted of five tests (Wozniak et al 1990) that are known to be able to detect significant muscle weakness, incoordination, somnolence, or other behavioral impairments.
For all of the tests in this sensorimotor battery, all treatment groups first received a habituation trial, to allow each rat to acclimate to the test situation. In all tests, protective padding was placed under any elevated apparatuses, to prevent pain or injury from falling. The tests performed were as follows:
A rat was timed for how long it could remain on a wooden plank that is 3 cm wide, elevated 61 cm above the floor.
Each rat was placed in the middle of a square outlined by white cloth tape (50×50 cm) on a smooth black surface of a large table top, and was timed for how long was required for the rat to leave the square (place all four paws outside the square).
Each rat was timed for how long it could remain perched on an elevated (61 cm above the floor) platform of small dimensions (7.6×15.2 cm).
Each rat was placed in the middle of an elevated (61 cm above the floor) wire mesh grid (8 squares per 10 cm) which was inclined at 60 degrees with the floor. […]

[5] = test system: rats; details: from 0.5 hr after treatment for 1 hr
Method: To address these issues, rats with sciatic nerve ligations, and rats with only sham sciatic nerve ligations, were treated with various doses of ethopropazine, clonidine, or the two agents together. They were then evaluated, using the following battery of sensorimotor and activity tests:
(5) One Hour Activity Level.
Locomotor activity was evaluated beginning at 0.5 hr following drug treatment, and lasting for 1 hr. In this test, the rat was placed in a cage equipped with three pairs of photoelectric cells, placed at regular intervals across the width of the cage, so that the animal's activity was monitored by automatically recording the number of “beam breaks” registered as the animal moved about the cage.

[6] = test system: NMDA receptors; experiment: Protection of neurons in cell culture against 200 μM NMA (Olney et al 1987); assay type: cell-based; details: ratio of protective concentrations
Method: In Table 1, the “protective concentration” for each compound was the micromolar concentration of that compound which provided complete protection for neurons, in cell culture tests, against a 200 μM concentration of NMA (i.e., a racemic mixture of the D and L stereoisomers of N-methyl-aspartate; the D isomer, which makes up 50% of the racemic mixture, is highly toxic to neurons, while the L isomer is somewhat less toxic).

[7] = clonidine alone, IP, 0.075 mg/kg

OC(CCN1CCCCC1)(c1ccccc1)C1CC2C=CC1C2 (centres unmarked) [Biperiden]
Protective concentration [1]: 200 µM

CN(C)CCCN1c2ccccc2Sc2ccc(Cl)cc21 [Chlorpromazine]
IC50 [2]: 45.9 ± 11.5 µM

CNCCCN1c2ccccc2CCc2ccccc21 [Desipramine]
IC50 [2]: 7.41 ± 1.32 µM

CN(C)CCOC(c1ccccc1)c1ccccc1 [Diphenhydramine]
Protective concentration [1]: 250 µM

CCN(CC)C(C)CN1c2ccccc2Sc2ccccc21 (centres unmarked) [Ethopropazine]
paw lifting latency curves of ligated and control limbs ([3]; ethopropazine alone, FIGS. 2B and 2C (20 and 30 mg/kg), 2 and 3 hour testing times): both curves rose, substantially
pain sensitivity (paw lifting latency) ([3]; ethopropazine alone, IP, 50 mg/kg, FIG. 2D): significantly changed the level of pain sensitivity in the ligated limb
pain sensitivity (paw lifting latency) ([3]; ethopropazine alone, IP, 10 to 30 mg/kg, FIG. 2): did not significantly change the pain sensitivity in either limb
performance on sensorimotor tests [4]: None of the ethopropazine or combined ethopropazine-plus-clonidine treatment regimens that proved effective for relieving neuropathic pain was associated with any impaired performance
activity level ([5]; ethopropazine alone, 50 mg/kg): significantly reduced activity level
Protective concentration [1]: 25 µM

CNC1(c2ccccc2Cl)CCCCC1=O (centres unmarked) [Ketamine]
potency relative to ethopropazine (times more potent) [6]: 5 times
potency relative to procyclidine (times more potent) [6]: 3 times
Protective concentration [1]: 5 µM
IC50 ([2]; comparator in text): 1.02 ± 0.33 µM

CNCCC=C1c2ccccc2CCc2ccccc21 [Nortriptyline]
IC50 [2]: 21 ± 0.67 µM

OC(CCN1CCCC1)(c1ccccc1)C1CCCCC1 (centres unmarked) [Procyclidine]
Protective concentration [1]: 15 µM

CN1[C@@H]2C[C@@H](OC(=O)[C@H](CO)c3ccccc3)C[C@H]1[C@@H]1O[C@@H]12 [Scopolamine]
Protective concentration [1]: >3000 µM

OC(CCN1CCCCC1)(c1ccccc1)C1CCCCC1 (centres unmarked) [Trihexyphenidyl]
Protective concentration [1]: 125 µM

Clc1cccc(Cl)c1N=C1NCCN1 [clonidine]
relief of neuropathic pain ([3]; clonidine alone, IP, 0.025 mg/kg and 0.05 mg/kg): no significant relief of neuropathic pain
relief of neuropathic pain [3, 7]: significant and relatively sustained neuropathic pain relief
sedation observed [3, 7]: significant sedation
activity level ([5]; clonidine alone, 0.050 mg/kg): reduce activity levels, but only slightly and to a barely significant degree
activity level ([5]; clonidine alone, 0.075 mg/kg): substantially reduced activity levels

c1ccc(C2(N3CCCCC3)CCCCC2)cc1 [phencyclidine]
potency relative to ethopropazine (times more potent) [6]: 50 times
potency relative to procyclidine (times more potent) [6]: 30 times
Protective concentration [1]: 0.5 µM
